This assay deals with heparinized whole blood. Description: Ex vivo induction of immune-function-related mRNA in heparinized whole blood, real time PCR. The class given is cell-based. As to conditions: 37° C., 4 hours, vs PBS.

Turning to leucoagglutinin [PHA-L], the “CCL4 mRNA induction” value was “induced”, the “CTLA4 mRNA induction” value was “induced”, the “CXCL3 mRNA induction” value is “induced” and the “CXCL10 mRNA induction” value was “induced”. For the same substance, the “GMCSF mRNA induction” value was “induced”, the “IFNG mRNA induction” value is listed as “induced”, the “IL4 mRNA induction” value was “induced” and the “IL10 mRNA induction” value is “induced”. For the same substance, the “TNFSF2 mRNA induction” value was “induced” and the “beta actin (ACTB) mRNA induction (control housekeeping gene)” value is on record as “not induced”.

These data come from patent US20150218638A1, “METHODS FOR ASSESSMENT OF PEPTIDE-SPECIFIC IMMUNITY” (priority 2012, published 2015).
